Read-outs that look alike come from different tables or passages of the source.
Columns and labels:
ATR [1] = target: T1, ATR (Homo sapiens, UniProt Q13535); test: ATR inhibition by western blot of pCHK1Ser345 after 4NQO, 9 other ovarian cancer cell lines; type: cell-based; conditions: mean of 9 ovarian cell lines
T1 construct: NIH-OVCAR3 cells and 9 other ovarian cancer cell lines were exposed to 4NQO ± VE-821 as indicated for 1 hr before western blotting; endogenous in cells
Experimental: (§1) (A) NIH-OVCAR3 cells and 9 other ovarian cancer cell lines were exposed to 4NQO ± VE-821 as indicated for 1 hr before western blotting. Chemiluminescence was quantified using Syngene software and expression of pCHK1Ser345 was normalised to vinculin expression. Western blot image is from a single representative experiment with pooled data from 3 independent experiments per cell line used to calculate the mean VE-821 IC50 and percentage inhibition at 1 µM VE-821. (B) Bar chart represents log-transformed read counts obtained from RNA-Seq data for each gene normalized to ACTB mRNA expression for NIH-OVCAR3 cells (black bars) and the mean mRNA expression of each gene across 12 cell lines (white bars) where each black dot represents one cell line. (C) Bar chart represents protein expression normalised to Ponceau-s staining calculated using ImageJ software in NIH-OVCAR3 cells (black bars) and the mean protein expression of each gene across 12 cell lines (white bars) where each black dot represents one cell line. Data are from a single experimental repeat. [PRKDC: DNA-PKcs, XRCC5: Ku80, XRCC6: Ku70]. […] Western blot of baseline protein expression in panel of ovarian cancer cell lines can be found at Figure S5.

[2] = tested on: 12 ovarian cancer cell lines; test: Colony formation assay, panel of 12 other ovarian cancer cell lines (mean)
Experimental: NIH-OVCAR3 cells were exposed to (A) VE-821 for 48 h, (B) carboplatin for 24 h or (C) rucaparib for 24 h. Media was replaced with drug free media for 21 days to allow colony formation. Data are the mean and standard deviation of at least three independent experiments. […] […] Data are pooled from 3 independent experiments per cell line.
(§2) Cells were plated into 6-well tissue culture dishes at low densities and allowed to adhere for 24 h before being treated for 24 h with carboplatin (0–50 µM) or rucaparib (0–30 µM), or 48 h with VE-821 (0–30 µM). DMSO concentration was kept constant at 0.5%, including no-drug control, for drugs dissolved in DMSO. Following treatment, the medium was removed and replaced with fresh drug-free medium to allow colony formation. The cells were fixed in methanol: acetic acid (3:1 v/v) and stained with 0.4% crystal violet. Colonies were counted and the % survival for each treatment was calculated from the relative plating efficiency of treated versus untreated controls.

ATR [3] = target: T1, ATR; test: ATR inhibition by western blot of pCHK1Ser345 after 4NQO, NIH-OVCAR3; type: cell-based
Experimental: as §1

[4] = tested on: HRR competent (HRC) cell lines; test: Colony formation assay, HRR competent cell lines
Experimental: (§3) NIH-OVCAR3 cells were exposed to (A) VE-821 for 48 h, (B) carboplatin for 24 h or (C) rucaparib for 24 h. Media was replaced with drug free media for 21 days to allow colony formation. Data are the mean and standard deviation of at least three independent experiments. (D) Sensitivity of an additional 12 ovarian cancer cell lines to the three drugs was calculated in the same way and LC50 values were calculated. […] Data are pooled from 3 independent experiments per cell line.
as §2

[5] = tested on: HCT116 p53 isogenic cell line pair; parameters: method as in PMID 30127241; conditions: cited from earlier work
[6] = tested on: BRCA1 mutant HRR defective (HRD) cell lines (COV362 and UWB1.289); test: Colony formation assay, HRR defective cell lines
Experimental: as §3, §2

NIH-OVCAR3 cells [7] = test: cells
Experimental: as §3, §2

NIH-OVCAR3 cells [8] = test: Immunofluorescence based γH2AX-RAD51 foci assay; type: cell-based, human; conditions: 10 µM rucaparib, 48 h vs 0.5% DMSO
Experimental: Figure 4 Assessment of HRR and NHEJ in the NIH-OVCAR3 cells. (A) Cells were exposed to 0.5% DMSO (control) or 10 µM rucaparib for 48 h before being fixed and stained as per the protocol outlined in the methods. After imaging, the number of γH2AX and RAD51 foci per nucleus was calculated using ImageJ software, data points represent number of foci in an individual nucleus. The fold change in number of foci per nuclei between control and 10 µM rucaparib was then calculated. (B) Cells were co-transfected with pDRGFP and pCBASceI plasmids and analysed for the presence of GFP-positive cells 48 h post-transfection. % HRR activity was calculated by normalizing to the untransfected control. […] (C) Cells were co-transfected with pimEJ5GFP and pCBASceI plasmids and analysed for the presence of GFP-positive cells 48 h post-transfection. % NHEJ activity was calculated by normalizing to the untransfected control. […] [* p < 0.05; ** p < 0.005; **** p < 0.0001 (unpaired t-test)].
HRR was assessed by immunofluorescence. Cells were treated for 48 h with 10 μM rucaparib with 0.5% DMSO concentration for the untreated and treated cells. […] The number of γH2AX and RAD51 foci in each cell was quantified using ImageJ software and data was plotted using GraphPad Prism (GraphPad, San Diego, CA, USA).

[9] = tested on: M059J and M059J-Fus1 cells; parameters: method as in PMID 22576130; conditions: cited from earlier work
p53 = type: cell-based, human
[10] = tested on: panel of cell lines, including the HCT116 p53 isogenic pair; parameters: method as in PMID 28062704; conditions: panel of cell lines incl. HCT116 p53 isogenic pair; cited from earlier work
p53 mutant CLL cells = tested on: p53 mutant CLL cells; parameters: method as in PMID 26312880; conditions: cited from earlier work
[11] = Homo sapiens, 48 h, read-out: VE-821 LC50 ± SD
[12] = ratio of LC50, colony formation
[13] = Homo sapiens, 24 h, read-out: Rucaparib LC50 ± SD

T1 sequence (Q13535 whole entry): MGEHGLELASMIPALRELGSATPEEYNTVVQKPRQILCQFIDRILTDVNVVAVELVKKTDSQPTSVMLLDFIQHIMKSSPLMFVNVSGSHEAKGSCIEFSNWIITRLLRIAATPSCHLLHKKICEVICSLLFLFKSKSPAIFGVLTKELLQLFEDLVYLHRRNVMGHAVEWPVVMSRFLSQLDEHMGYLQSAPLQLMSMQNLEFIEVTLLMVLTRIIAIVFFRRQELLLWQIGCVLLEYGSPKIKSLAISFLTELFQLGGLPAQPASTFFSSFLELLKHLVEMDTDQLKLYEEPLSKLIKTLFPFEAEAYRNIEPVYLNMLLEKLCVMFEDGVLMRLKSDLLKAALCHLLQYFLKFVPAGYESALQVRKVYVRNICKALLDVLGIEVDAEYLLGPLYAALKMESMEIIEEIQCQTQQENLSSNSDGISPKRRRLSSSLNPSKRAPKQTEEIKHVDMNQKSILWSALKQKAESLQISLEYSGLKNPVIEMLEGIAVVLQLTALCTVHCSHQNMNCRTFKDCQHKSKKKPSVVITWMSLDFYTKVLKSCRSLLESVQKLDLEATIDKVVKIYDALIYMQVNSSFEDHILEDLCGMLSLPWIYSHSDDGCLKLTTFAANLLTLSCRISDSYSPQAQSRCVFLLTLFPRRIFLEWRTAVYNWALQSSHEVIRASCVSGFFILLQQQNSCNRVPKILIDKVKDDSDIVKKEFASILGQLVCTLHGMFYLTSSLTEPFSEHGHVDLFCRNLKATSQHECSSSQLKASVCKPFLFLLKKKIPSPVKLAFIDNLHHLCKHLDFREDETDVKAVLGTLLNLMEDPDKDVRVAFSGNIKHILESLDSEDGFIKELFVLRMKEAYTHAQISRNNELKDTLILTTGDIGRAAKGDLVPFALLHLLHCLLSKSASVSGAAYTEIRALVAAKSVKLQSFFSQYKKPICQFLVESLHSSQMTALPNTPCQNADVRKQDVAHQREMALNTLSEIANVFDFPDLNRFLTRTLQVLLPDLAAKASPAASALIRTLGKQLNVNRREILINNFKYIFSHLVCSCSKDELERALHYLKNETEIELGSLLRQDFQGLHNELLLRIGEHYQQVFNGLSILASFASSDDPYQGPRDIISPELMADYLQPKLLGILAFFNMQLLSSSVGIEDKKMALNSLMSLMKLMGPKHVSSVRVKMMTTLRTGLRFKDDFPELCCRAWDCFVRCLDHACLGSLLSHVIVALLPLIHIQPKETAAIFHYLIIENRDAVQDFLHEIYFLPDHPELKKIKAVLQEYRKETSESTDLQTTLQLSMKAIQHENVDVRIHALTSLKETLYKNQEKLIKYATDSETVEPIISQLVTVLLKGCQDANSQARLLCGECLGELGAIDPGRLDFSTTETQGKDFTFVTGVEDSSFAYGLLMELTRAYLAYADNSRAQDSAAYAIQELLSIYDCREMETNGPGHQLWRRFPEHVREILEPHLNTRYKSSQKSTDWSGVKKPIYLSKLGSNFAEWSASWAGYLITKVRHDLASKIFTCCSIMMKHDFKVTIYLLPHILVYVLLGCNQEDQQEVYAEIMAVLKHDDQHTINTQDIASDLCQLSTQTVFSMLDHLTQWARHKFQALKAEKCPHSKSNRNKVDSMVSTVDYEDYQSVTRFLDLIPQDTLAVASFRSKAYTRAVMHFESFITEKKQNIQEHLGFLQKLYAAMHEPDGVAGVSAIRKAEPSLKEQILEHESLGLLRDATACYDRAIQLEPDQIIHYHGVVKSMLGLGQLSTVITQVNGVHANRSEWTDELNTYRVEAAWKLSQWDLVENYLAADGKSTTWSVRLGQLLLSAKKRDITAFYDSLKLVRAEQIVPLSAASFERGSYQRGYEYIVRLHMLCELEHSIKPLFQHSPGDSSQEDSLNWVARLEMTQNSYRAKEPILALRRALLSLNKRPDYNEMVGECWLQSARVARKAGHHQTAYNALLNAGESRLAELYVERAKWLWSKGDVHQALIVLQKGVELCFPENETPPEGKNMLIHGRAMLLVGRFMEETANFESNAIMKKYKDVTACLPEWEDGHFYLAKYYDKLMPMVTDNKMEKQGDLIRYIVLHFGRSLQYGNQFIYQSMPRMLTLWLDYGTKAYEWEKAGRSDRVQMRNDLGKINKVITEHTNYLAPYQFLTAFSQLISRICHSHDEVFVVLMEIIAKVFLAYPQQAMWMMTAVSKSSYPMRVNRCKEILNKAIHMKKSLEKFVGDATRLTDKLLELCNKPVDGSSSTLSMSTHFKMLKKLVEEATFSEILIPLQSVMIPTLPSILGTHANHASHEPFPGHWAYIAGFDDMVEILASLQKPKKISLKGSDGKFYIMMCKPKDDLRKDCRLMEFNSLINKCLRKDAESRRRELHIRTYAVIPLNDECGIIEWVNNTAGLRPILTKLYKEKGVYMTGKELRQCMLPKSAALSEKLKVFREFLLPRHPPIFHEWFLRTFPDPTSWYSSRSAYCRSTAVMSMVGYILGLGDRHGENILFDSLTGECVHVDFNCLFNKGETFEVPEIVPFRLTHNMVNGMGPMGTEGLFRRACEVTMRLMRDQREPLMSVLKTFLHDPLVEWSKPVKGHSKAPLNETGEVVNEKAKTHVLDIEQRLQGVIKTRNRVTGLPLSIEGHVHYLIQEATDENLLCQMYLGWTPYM
T1 sequence (Q8WXE1 whole entry partner): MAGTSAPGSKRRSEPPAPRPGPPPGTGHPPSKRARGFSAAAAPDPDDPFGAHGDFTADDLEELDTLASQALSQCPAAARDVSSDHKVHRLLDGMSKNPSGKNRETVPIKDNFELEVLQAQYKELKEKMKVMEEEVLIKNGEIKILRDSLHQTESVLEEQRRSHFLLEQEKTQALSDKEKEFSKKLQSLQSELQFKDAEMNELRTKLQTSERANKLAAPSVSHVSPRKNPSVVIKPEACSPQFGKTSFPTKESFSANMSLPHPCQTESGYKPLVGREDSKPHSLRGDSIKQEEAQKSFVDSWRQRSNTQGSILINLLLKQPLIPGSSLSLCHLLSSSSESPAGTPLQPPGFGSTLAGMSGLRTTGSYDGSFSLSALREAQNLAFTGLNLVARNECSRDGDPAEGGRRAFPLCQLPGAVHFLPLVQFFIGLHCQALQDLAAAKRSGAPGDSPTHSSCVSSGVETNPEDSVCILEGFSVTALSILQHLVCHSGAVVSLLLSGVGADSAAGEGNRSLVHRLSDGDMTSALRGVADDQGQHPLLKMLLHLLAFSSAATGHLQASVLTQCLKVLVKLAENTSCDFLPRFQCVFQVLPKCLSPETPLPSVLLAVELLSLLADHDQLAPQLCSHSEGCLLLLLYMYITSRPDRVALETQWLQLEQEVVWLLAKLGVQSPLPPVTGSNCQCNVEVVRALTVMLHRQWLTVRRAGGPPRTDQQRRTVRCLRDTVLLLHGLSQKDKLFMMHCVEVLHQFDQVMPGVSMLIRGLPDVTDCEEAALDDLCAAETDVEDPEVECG

Compound: CS(=O)(=O)c1ccc(-c2cnc(N)c(C(=O)Nc3ccccc3)n2)cc1 [VE-821]
- inhibition at 1 µM (ATR [1]; 1 μM VE-821, 4NQO, 1 hr, pCHK1Ser345, read-out: ATR Inhibition at 1 μM VE-821 ± SD): 78.1 ± 13.4%
- IC50 (ATR [1]; 4NQO ± VE-821 for 1 hr, western blot, read-out: VE-821 IC50 ± SD (ATR inhibition, pCHK1Ser345)): 380 ± 200 nM
- CC50 [2, 11]: 1580 ± 1120 nM
- IC50 (ATR [3]; 4NQO ± VE-821 for 1 hr, western blot, normalised to vinculin, read-out: VE-821 IC50 ± SD (ATR inhibition, pCHK1Ser345)): 310 ± 270 nM
- inhibition at 1 µM (ATR [3]; OVCAR-3, 1 μM VE-821, 4NQO, 1 hr, pCHK1Ser345, read-out: ATR Inhibition at 1 μM VE-821 ± SD): 81 ± 5.29%
- CC50 [4, 11]: 1680 ± 1190 nM
- Difference in sensitivity to single agent between p53 isogenic cells [5]: no difference in sensitivity
- CC50 [6, 11]: 1010 ± 500 nM
- CC50 (NIH-OVCAR3 cells [7]; Homo sapiens, OVCAR-3, read-out: VE-821 LC50 ± SD): 17900 ± 4560 nM
- Fold more resistant, NIH-OVCAR3 compared to panel of 12 ovarian cancer cell lines (NIH-OVCAR3 cells [7]; [12]): 11 fold

Compound: CC(=O)O[C@H]1C(=O)[C@@]2(C)[C@H]([C@H](OC(=O)c3ccccc3)[C@]3(O)C[C@H](OC(=O)[C@H](O)[C@@H](NC(=O)c4ccccc4)c4ccccc4)C(C)=C1C3(C)C)[C@]1(OC(C)=O)CO[C@@H]1C[C@@H]2O [Paclitaxel, paclitaxel]
- CC50 ([2]; Homo sapiens, 24 h, read-out: Paclitaxel LC50 ± SD): 3.37 ± 2.41 nM
- CC50 (NIH-OVCAR3 cells [7]; Homo sapiens, OVCAR-3, read-out: Paclitaxel LC50 ± SD): 2.71 ± 0.08 nM

Compound: CNCc1ccc(-c2[nH]c3cc(F)cc4c3c2CCNC4=O)cc1 [Rucaparib, rucaparib]
- RAD51 foci formation (NIH-OVCAR3 cells [8]): increase in RAD51 foci formation
- γH2AX foci formation (NIH-OVCAR3 cells [8]): induction in γH2AX foci
- CC50 [2, 13]: 8800 ± 9580 nM
- CC50 [4, 13]: 10500 ± 9610 nM
- CC50 [6, 13]: 280 ± 70 nM
- CC50 (NIH-OVCAR3 cells [7]; Homo sapiens, OVCAR-3, read-out: Rucaparib LC50 ± SD): 410 ± 60 nM
- Fold more sensitive, NIH-OVCAR3 compared to HRR competent (HRC) cell lines (NIH-OVCAR3 cells [7]; [12]): 26 fold
- Fold more sensitive, NIH-OVCAR3 compared to the 12 ovarian cancer cell lines (NIH-OVCAR3 cells [7]; [12]): 21 fold

Compound: N.N.O=C([O-])C1(C(=O)[O-])CCC1.[Pt+2] [Carboplatin]
- CC50 ([2]; read-out: Carboplatin LC50 ± SD, mean of 12 ovarian cell lines, 24 h exposure, colony formation): 6120 ± 6180 nM
- CC50 ([4]; read-out: Carboplatin LC50 ± SD, HRC cell lines, 24 h exposure, colony formation): 7020 ± 7090 nM
- CC50 ([6]; read-out: Carboplatin LC50 ± SD, HRD cell lines, 24 h exposure, colony formation): 1520 ± 940 nM
- Fold more sensitive, NIH-OVCAR3 compared to the 12 ovarian cancer cell lines (NIH-OVCAR3 cells [7]; [12]): 5 fold
- CC50 (NIH-OVCAR3 cells [7]; read-out: Carboplatin LC50 ± SD, NIH-OVCAR3, 24 h exposure, then drug free media 21 days, colony formation): 1290 ± 340 nM

Compound: COc1cccc2c1C(=O)c1c(O)c3c(c(O)c1C2=O)C[C@@](O)(C(=O)CO)C[C@@H]3O[C@H]1C[C@H](N)[C@H](O)[C@H](C)O1 [Doxorubicin, doxorubicin]
- CC50 ([2]; Homo sapiens, 24 h, read-out: Doxorubicin LC50 ± SD): 44.5 ± 15.5 nM
- mean percentage cell survival at 100 nM ([2]; mean of the 12 ovarian cancer cell lines, 100 nM doxorubicin): ~ 12%
- percentage cell survival at 100 nM ([9]; M059J-Fus1 cells, 100 nM doxorubicin): ~ 30%
- Fold more sensitive, NHEJ-deficient M059J vs NHEJ-proficient M059J-Fus1 cells [9]: 20 fold
- Fold higher percentage cell survival, NIH-OVCAR3 vs mean of the 12 ovarian cancer cell lines (NIH-OVCAR3 cells [7]; 100 nM doxorubicin): 1.4 fold
- CC50 (NIH-OVCAR3 cells [7]; Homo sapiens, OVCAR-3, read-out: Doxorubicin LC50 ± SD): 55 ± 1.97 nM
- percentage cell survival at 100 nM (NIH-OVCAR3 cells [7]; NIH-OVCAR3, 100 nM doxorubicin): ~ 17%

Compound: CC[C@@]1(O)C(=O)OCc2c1cc1n(c2=O)Cc2cc3c(CN(C)C)c(O)ccc3nc2-1 [Topotecan, topotecan]
- CC50 ([2]; Homo sapiens, 24 h, read-out: Topotecan LC50 ± SD): 15.6 ± 9.32 nM
- CC50 (NIH-OVCAR3 cells [7]; Homo sapiens, OVCAR-3, read-out: Topotecan LC50 ± SD): 7.2 ± 0.36 nM

Compound: COc1ccc(C2=N[C@@H](c3ccc(Cl)cc3)[C@@H](c3ccc(Cl)cc3)N2C(=O)N2CCNC(=O)C2)c(OC(C)C)c1 [Nutlin-3]
- Induction of MDM2 and p21 (indicators of p53 activation) (p53): no induction of either MDM2 or p21

Compound: Nc1ccn([C@@H]2O[C@H](CO)[C@@H](O)C2(F)F)c(=O)n1 [Gemcitabine, gemcitabine]
- Gemcitabine LC50 ± SD [2]: 28.7 nM
- CC50 (NIH-OVCAR3 cells [7]; Homo sapiens, OVCAR-3, read-out: Gemcitabine LC50 ± SD): 41.5 ± 1.2 nM

Compound: C[C@@H]1COCCN1c1cc(C2([S@](C)(=N)=O)CC2)nc(-c2cc[nH]c3nccc2-3)n1 [AZD6738]
- Sensitivity in relation to p53 status [10]: independent of p53 status
- Cytotoxicity in relation to p53 status (p53 mutant CLL cells): selectively cytotoxic towards p53 mutant CLL cells

Source: PMC7409137, “Characterisation of Ovarian Cancer Cell Line NIH-OVCAR3 and Implications of Genomic, Transcriptomic, Proteomic and Functional DNA Damage Response Biomarkers for Therapeutic Targeting” (Cancers, 2020)
